Like-named read-outs stand apart in the source and are kept apart here.
Assays:
S. aureus (SaFtsZ) = biological target: T1, S. aureus (SaFtsZ) (Staphylococcus aureus, UniProt P0A031); test: biochemical; type: binding
T1 construct: 6xHis (C); made in house; host or cells: E. coli BLR (DE3), pET-22b(+)
T1 sequence (P0A031 1-390): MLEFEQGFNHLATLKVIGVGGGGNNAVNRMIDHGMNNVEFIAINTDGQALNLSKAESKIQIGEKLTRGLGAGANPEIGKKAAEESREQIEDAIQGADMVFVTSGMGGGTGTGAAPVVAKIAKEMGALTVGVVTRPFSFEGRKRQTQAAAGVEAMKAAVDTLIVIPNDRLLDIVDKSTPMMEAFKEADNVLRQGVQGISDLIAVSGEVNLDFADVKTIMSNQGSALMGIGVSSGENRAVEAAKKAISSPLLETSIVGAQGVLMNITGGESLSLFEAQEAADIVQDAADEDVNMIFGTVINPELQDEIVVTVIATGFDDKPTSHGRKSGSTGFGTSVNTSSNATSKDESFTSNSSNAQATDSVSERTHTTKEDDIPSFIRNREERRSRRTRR
Experimental: (§1) Fluorescence anisotropy experiments were performed using an AVIV model ATF105 spectrofluorometer at 15, 25, or 37 °C. In these experiments, bandwidths were set to 4 nm in both the excitation and emission directions, with the excitation and emission wavelengths being set at 488 nm and 510 nm, respectively. BOFP (0.1 µM) was titrated with increasing concentrations (ranging from 0 to 12 µM) of FtsZ in 120 µL of buffer containing 50 mM Tris-HCl (pH 7.6) and 50 mM KCl. After each protein addition, the samples were equilibrated for 3 minutes, whereupon the fluorescence anisotropy was measured.
(§2) In this equation, r0 is the anisotropy of the protein-free compound, r∞ is the anisotropy of the compound in the presence of an infinite concentration of FtsZ, [C]tot is the total concentration of the compound, and [P]tot is the total concentration of protein with each addition. These analyses yielded the equilibrium dissociation constant (Kd) for each binding reaction.
(§3) The binding free energy (ΔG) at temperature T was derived from the corresponding Kd value determined at T using the following relationship:2 ΔG=−RTln(1/Kd)
(§4) The binding enthalpy (ΔH) and entropy (ΔS) were derived from linear fits of the ln(1/Kd) vs. 1/T plots shown in Figs. 3f and 5e using the following relationship:3 ln(1/Kd)=−ΔH/R(1/T)+ΔS/R
The impact of guanosine nucleotide and magnesium on the binding of BOFP to SaFtsZ was assessed at 37 °C in the same buffer described above. In these studies, the anisotropy of 0.1 µM BOFP alone or in the presence of 10 µM SaFtsZ was measured, with the latter also being measured in the presence of 0.1 mM GMPCPP (a non-hydrolyzable GTP analog), 10 mM MgCl2, or both.
In comparative control experiments, the anisotropy of 0.1 µM BODIPY FL-COOH or BOFP alone or in the presence of SaFtsZ (10 µM), SpyFtsZ (10 µM), KpFtsZ (2 µM), or PaFtsZ (2 µM) was measured at 37 °C in the same buffer described above.

E. coli (EcFtsZ) = E. coli (EcFtsZ) (Escherichia coli, UniProt P0A9A6); test: Fluorescence anisotropy binding of BOFP to EcFtsZ; conditions: for Kd: 50 mM Tris-HCl (pH 7.6), 50 mM KCl, 0.1 µM BOFP
E. coli (EcFtsZ), sequence (P0A9A6 whole entry): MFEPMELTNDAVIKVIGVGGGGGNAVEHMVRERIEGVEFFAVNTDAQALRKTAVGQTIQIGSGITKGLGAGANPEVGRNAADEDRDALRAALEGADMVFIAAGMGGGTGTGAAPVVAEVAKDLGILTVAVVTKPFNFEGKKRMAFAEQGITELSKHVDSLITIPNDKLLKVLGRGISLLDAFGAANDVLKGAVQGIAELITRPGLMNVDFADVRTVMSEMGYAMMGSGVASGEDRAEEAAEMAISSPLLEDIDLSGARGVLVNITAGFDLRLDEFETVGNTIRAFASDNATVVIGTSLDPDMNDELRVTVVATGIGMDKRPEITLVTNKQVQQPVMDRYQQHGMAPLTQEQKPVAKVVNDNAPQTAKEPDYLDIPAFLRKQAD
Experimental: as §1, §2, §3, §4

[1] = biological target: T2, FtsZ in S. aureus NRS705 cells (Staphylococcus aureus, UniProt P0A031); type: cell-based; conditions: 1 µg/mL for 5 minutes
T2 construct: endogenous in cells; host or cells: S. aureus NRS705 (USA100 MRSA)
Experimental: All differential interference contrast (DIC) and fluorescence microscopy experiments were conducted using an Olympus BX50 microscope equipped with an X-cite Exacte 200 W mercury lamp, a 100× Olympus UPLSAPO oil immersion objective (1.40 aperture), as well as both Chroma ET-EGFP (FITC/Cy2) and ET mCherry, Texas Red filters. Images were captured using a QImaging Retiga R3 charge-coupled device (CCD) camera and the Ocular-Version 2.0 software package (QImaging).
For visualizing FtsZ in Gram-positive bacteria using BOFP, the bacterial cells were grown to log-phase in media suitable for each individual pathogen. Specifically, S. aureus NRS705 (MRSA) was grown in tryptic soy broth (TSB), E. faecalis ATCC 29212 and E. faecium ATCC 19434 were grown in lactobacilli MRS broth, S. agalactiae ATCC 12386 and S. pneumoniae ATCC 49619 were grown in TH broth, and S. pyogenes ATCC 19615 was grown in CAMH broth supplemented with 3% (v/v) LHB. For each Gram-positive bacterial strain, a total of 1 mL of cell culture was centrifuged at 15,000 × g for 1 minute and washed 2–3 times with 1 mL of PBS. After the final wash, the pelleted cells were resuspended in 500 µL of PBS containing 1 µg/mL of BOFP and incubated in the dark for 5 minutes at room temperature. The cells were then centrifuged at 15,000 × g for 1 minute, washed twice with 1 mL of PBS, and subsequently resuspended in 200 µL of PBS. […]

[2] = calculated at T = 310 K (37 °C) from Kd
[3] = from linear fit of ln(1/Kd) vs. 1/T

## CC1=CC(C)=[N+]2C1=Cc1ccc(CCC(=O)OCC(Oc3ccc(F)c(C(N)=O)c3F)c3nc(-c4ccc(C(F)(F)F)cc4)c(Br)o3)n1[B-]2(F)F (stereo not drawn) [BOFP]
S. aureus (SaFtsZ); 0.1 µM BOFP, 10 µM SaFtsZ, 0.1 mM GMPCPP and 10 mM MgCl2, 37 °C
  Effect of both GMPCPP and MgCl2 on anisotropy of SaFtsZ-bound BOFP: modest increase in the anisotropy
S. aureus (SaFtsZ); 0.1 µM BOFP, 10 µM SaFtsZ, 0.1 mM GMPCPP or 10 mM MgCl2, 37 °C
  Effect of GMPCPP alone or MgCl2 alone on anisotropy of SaFtsZ-bound BOFP: neither GMPCPP alone (at 0.1 mM) nor MgCl2 alone (at 10 mM) has a significant effect
S. aureus (SaFtsZ); 15 °C, 50 mM Tris-HCl (pH 7.6), 50 mM KCl, 0.1 µM BOFP, read-out: Kd - 15 °C
  Kd: 0.88 ± 0.08 µM
S. aureus (SaFtsZ); 25 °C, 50 mM Tris-HCl (pH 7.6), 50 mM KCl, 0.1 µM BOFP, read-out: Kd - 25 °C
  Kd: 1.66 ± 0.12 µM
S. aureus (SaFtsZ); 37 °C, 50 mM Tris-HCl (pH 7.6), 50 mM KCl, 0.1 µM BOFP, read-out: Kd - 37 °C
  Kd: 3.14 ± 0.13 µM
S. aureus (SaFtsZ); [2]
  ΔG: -32.6 ± 0.42 kJ/mol
S. aureus (SaFtsZ); [3]
  ΔH: -42.7 ± 1.3 kJ/mol
  ΔS: −7.8 ± 1.0 cal/mol•K
S. aureus (SaFtsZ); range over 15 to 37 °C, read-out: Kd range
  Kd: 0.9 to 3.1 µM
E. coli (EcFtsZ); 15 °C, read-out: Kd - 15 °C
  Kd: 0.22 ± 0.03 µM
E. coli (EcFtsZ); 25 °C, read-out: Kd - 25 °C
  Kd: 0.28 ± 0.02 µM
E. coli (EcFtsZ); 37 °C, read-out: Kd - 37 °C
  Kd: 0.44 ± 0.04 µM
E. coli (EcFtsZ); [2]
  ΔG: -37.7 ± 0.42 kJ/mol
E. coli (EcFtsZ); [3]
  ΔH: -23.4 ± 3.3 kJ/mol
[1]
  Fluorescence staining / FtsZ labeling in live cells: bright bands of fluorescence staining are clearly visible at midcell
